In patent publication EP0871764B1, “SCREENING METHOD” (Novartis AG, priority 1995, dated 1997) one finds Kd data, which are given here for 5 compounds.

This assay has as its target T1, RAC-PK PH domain (Homo sapiens, UniProt P31749).
T1 construct: pGEX-PH131 contains an in-frame fusion of amino acids 1-131 of human RAC-PKα with GST; GST (N, cleaved yes); made in house; host or cells: E. coli (JM109)
The assay is described as follows: Quenching of the intrinsic Trp fluorescence of the PH domain by phospholipids and inositol phosphates. Format: binding. Particulars: calculated from reduction of 345nm fluorescence (excited at 290nm); 10mM Hepes/NaOH, pH 7.0, 10mM MgCl2, 25°C; read-out: Dissociation Constant. Here is the method:
Purified PH domain obtained according to Example 1 is incubated at a concentration of 1.4µM in 10mM Hepes/NaOH, pH 7.0, 10mM MgCl2, at 25°C.
Under the same conditions as Example 3, the RAC-PK PH domain is incubated in the presence of varying concentrations of phospholipids and inositol phosphates and fluorescence is measured. […]

T1 sequence (P31749 1-131): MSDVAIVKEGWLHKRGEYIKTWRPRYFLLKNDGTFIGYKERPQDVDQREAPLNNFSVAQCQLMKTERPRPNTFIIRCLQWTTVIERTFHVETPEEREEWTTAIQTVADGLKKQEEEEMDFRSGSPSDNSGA

`O=P(O)(O)OC1C(O)C(O)C(O)C(O)C1O` (centres unmarked) [Ins (1) monophosphate]: the Kd is 7000 nM.

With `O=P(O)(O)OC1C(O)C(O)C(OP(=O)(O)O)C(O)C1O` (centres unmarked) [Ins (1,4) bisphosphate], the Kd is 900 nM.

Consider `O=P(O)(O)OC1C(O)C(O)C(OP(=O)(O)O)C(OP(=O)(O)O)C1O` (centres unmarked) [Ins (1,4,5) trisphosphate], for which the Kd is 1200 nM.

For the compound `O=P(O)(O)OC1C(O)C(O)C(O)C(O)C1O` (centres unmarked) [Ins (2) monophosphate], the Kd is 8400 nM.

As to Ptd-Ins (4,5)bisphosphate, the Kd was 400 nM.
